# Laboratory results reported in patent US20230172930A1, “USE OF COMPLEMENT FACTOR D INHIBITORS ALONE OR IN COMBINATION WITH ANTI-C5 ANTIBODIES FOR TREATMENT OF PAROXYSMAL NOCTURNAL HEMOGLOBINURIA” (Alexion Pharmaceuticals, Inc., priority 2020, published 2023).
# System: PNH patients with an inadequate response to eculizumab
# Test: Phase 2 open-label study of danicopan added to eculizumab: laboratory markers of PNH (Hgb, LDH, reticulocytes, bilirubin)
# Type: in vivo, human
# Conditions: for Direct bilirubin, mean / LDH, mean / Reticulocytes, mean / Total bilirubin, mean: all patients N=11
# Protocol: All doses were taken approximately 15-30 minutes after completion of a meal or snack. Dose escalations, to a maximum of 200 mg three times a day, were based on safety and hemoglobin values and permitted at 4-week intervals through week 12 at 50 mg increments. If the patient had not already reached the 200 mg three times daily maximal dose by week 12, escalation was permitted if clinically indicated. […] Patients completing treatment with clinical benefit entered a long-term extension phase.
# Descriptive statistics are provided for biochemical, quality-of-life measurements, and transfusion data. Continuous variables are summarized with mean, median, minimum and maximum values. Categorical variables, e.g., transfusion-independent, are summarized with counts and percentages. Missing values were not imputed.
# [1] = Patient A, Baseline, before danicopan, on eculizumab 900 mg q14d
# [2] = Patient A, Week 12, danicopan 150 mg TID + eculizumab 900 mg q14d
# [3] = Patient A, Week 24, danicopan 150 mg TID + eculizumab 900 mg q14d
# [4] = Patient B, Baseline, before danicopan, on eculizumab 1200 mg q14d
# [5] = Patient B, Week 12, danicopan 100 mg TID + eculizumab 900 mg q14d
# [6] = Patient B, Week 24, danicopan 100 mg TID + eculizumab 900 mg q14d
# [7] = Patient C, Baseline, before danicopan, on eculizumab 900 mg q14d
# [8] = Patient C, Week 12, danicopan 150 mg TID + eculizumab 900 mg q14d
# [9] = Patient C, Week 24, danicopan 150 mg TID + eculizumab 900 mg q14d
# [10] = Patient D, Baseline, before danicopan, on eculizumab 900 mg q14d
# [11] = Patient D, Week 12, danicopan 150 mg TID + eculizumab 900 mg q14d
# [12] = Patient D, Week 24, danicopan 150 mg TID + eculizumab 900 mg q14d
# [13] = Patient E, Baseline, before danicopan, on eculizumab 1200 mg q14d
# [14] = Patient E, Week 12, danicopan 150 mg TID + eculizumab 1200 mg q14d
# [15] = Patient E, Week 24, danicopan 150 mg TID + eculizumab 1200 mg q14d
# [16] = Patient F, Baseline, before danicopan, on eculizumab 900 mg q14d
# [17] = Patient F, Week 12, danicopan 150 mg TID + eculizumab 900 mg q14d
# [18] = Patient F, Week 24, danicopan 150 mg TID + eculizumab 900 mg q14d
# [19] = Patient G, Baseline, before danicopan, on eculizumab 1500 mg q14d
# [20] = Patient G, Week 12, danicopan 100 mg TID + eculizumab 1500 mg q14d
# [21] = Patient G, Week 24, danicopan 100 mg TID + eculizumab 1500 mg q14d
# [22] = Patient H, Baseline, before danicopan, on eculizumab 900 mg q14d
# [23] = Patient H, Week 12, danicopan 200 mg TID + eculizumab 900 mg q14d
# [24] = Patient H, Week 24, danicopan 200 mg TID + eculizumab 900 mg q14d
# [25] = Patient I, Baseline, before danicopan, on eculizumab 900 mg q14d
# [26] = Patient I, Week 12, danicopan 100 mg TID + eculizumab 900 mg q14d
# [27] = Patient I, Week 24, danicopan 200 mg TID + eculizumab 900 mg q14d
# [28] = Patient J, Baseline, before danicopan, on eculizumab 1200 mg q14d
# [29] = Patient J, Week 12, danicopan 100 mg TID + eculizumab 1200 mg q14d
# [30] = Patient J, Week 24, danicopan 200 mg TID + eculizumab 1200 mg q14d
# [31] = Patient K, Baseline, before danicopan, on eculizumab 900 mg q14d
# [32] = Patient K, Week 12, danicopan 100 mg TID + eculizumab 900 mg q14d
# [33] = Patient K, Week 24, danicopan 150 mg TID + eculizumab 900 mg q14d
# [34] = Baseline, before danicopan, on eculizumab
# [35] = Week 24, danicopan 100-200 mg TID + eculizumab
structure (smiles),measurement,setting,value
"CC(=O)c1nn(CC(=O)N2C[C@H](F)C[C@H]2C(=O)Nc2cccc(Br)n2)c2ccc(-c3cnc(C)nc3)cc12 [Danicopan, danicopan]",Direct bilirubin,[1],0.44 mg/dL
same,Hgb,[1],5.00 g/dL
same,LDH,[1],1.7 ×ULN
same,Reticulocytes,[1],159 10^9/μL
same,Total bilirubin,[1],2.14 mg/dL
same,Direct bilirubin,[2],0.33 mg/dL
same,Hgb,[2],7.70 g/dL
same,LDH,[2],1.2 ×ULN
same,Reticulocytes,[2],121 10^9/μL
same,Total bilirubin,[2],1.80 mg/dL
same,Direct bilirubin,[3],0.48 mg/dL
same,Hgb,[3],8.50 g/dL
same,LDH,[3],1.1 ×ULN
same,Reticulocytes,[3],112 10^9/μL
same,Total bilirubin,[3],2.40 mg/dL
same,Direct bilirubin,[4],0.29 mg/dL
same,Hgb,[4],9.80 g/dL
same,LDH,[4],1.0 ×ULN
same,Reticulocytes,[4],250 10^9/μL
same,Total bilirubin,[4],1.24 mg/dL
same,Direct bilirubin,[5],0.18 mg/dL
same,Hgb,[5],11.8 g/dL
same,LDH,[5],0.8 ×ULN
same,Reticulocytes,[5],123 10^9/μL
same,Total bilirubin,[5],0.89 mg/dL
same,Direct bilirubin,[6],0.20 mg/dL
same,Hgb,[6],13.3 g/dL
same,LDH,[6],0.9 ×ULN
same,Reticulocytes,[6],162 10^9/μL
same,Total bilirubin,[6],0.81 mg/dL
same,Direct bilirubin,[7],0.24 mg/dL
same,Hgb,[7],7.60 g/dL
same,LDH,[7],0.8 ×ULN
same,Reticulocytes,[7],141 10^9/μL
same,Total bilirubin,[7],1.03 mg/dL
same,Direct bilirubin,[8],0.16 mg/dL
same,Hgb,[8],9.00 g/dL
same,LDH,[8],0.9 ×ULN
same,Reticulocytes,[8],97.0 10^9/μL
same,Total bilirubin,[8],0.580 mg/dL
same,Direct bilirubin,[9],0.16 mg/dL
same,Hgb,[9],9.70 g/dL
same,LDH,[9],0.9 ×ULN
same,Reticulocytes,[9],87.0 10^9/μL
same,Total bilirubin,[9],0.580 mg/dL
same,Direct bilirubin,[10],0.43 mg/dL
same,Hgb,[10],10.4 g/dL
same,LDH,[10],1.1 ×ULN
same,Reticulocytes,[10],191 10^9/μL
same,Total bilirubin,[10],2.26 mg/dL
same,Direct bilirubin,[11],0.15 mg/dL
same,Hgb,[11],11.7 g/dL
same,LDH,[11],1.2 ×ULN
same,Reticulocytes,[11],56.0 10^9/μL
same,Total bilirubin,[11],0.700 mg/dL
same,Direct bilirubin,[12],0.17 mg/dL
same,Hgb,[12],11.5 g/dL
same,LDH,[12],0.9 ×ULN
same,Reticulocytes,[12],56.0 10^9/μL
same,Total bilirubin,[12],0.650 mg/dL
same,Direct bilirubin,[13],0.72 mg/dL
same,Hgb,[13],8.60 g/dL
same,LDH,[13],1.2 ×ULN
same,Reticulocytes,[13],120 10^9/μL
same,Total bilirubin,[13],2.35 mg/dL
same,Direct bilirubin,[14],0.40 mg/dL
same,Hgb,[14],7.60 g/dL
same,LDH,[14],1.3 ×ULN
same,Reticulocytes,[14],179 10^9/μL
same,Total bilirubin,[14],2.22 mg/dL
same,Direct bilirubin,[15],0.60 mg/dL
same,Hgb,[15],9.40 g/dL
same,LDH,[15],1.2 ×ULN
same,Reticulocytes,[15],90.0 10^9/μL
same,Total bilirubin,[15],1.75 mg/dL
same,Direct bilirubin,[16],0.82 mg/dL
same,Hgb,[16],7.20 g/dL
same,LDH,[16],0.9 ×ULN
same,Reticulocytes,[16],405 10^9/μL
same,Total bilirubin,[16],3.93 mg/dL
same,Direct bilirubin,[17],0.49 mg/dL
same,Hgb,[17],9.30 g/dL
same,LDH,[17],0.9 ×ULN
same,Reticulocytes,[17],243 10^9/μL
same,Total bilirubin,[17],1.50 mg/dL
same,Direct bilirubin,[18],0.78 mg/dL
same,Hgb,[18],10.6 g/dL
same,LDH,[18],0.9 ×ULN
same,Reticulocytes,[18],253 10^9/μL
same,Total bilirubin,[18],2.95 mg/dL
same,Direct bilirubin,[19],0.39 mg/dL
same,Hgb,[19],7.10 g/dL
same,LDH,[19],0.6 ×ULN
same,Reticulocytes,[19],262 10^9/μL
same,Total bilirubin,[19],1.20 mg/dL
same,Direct bilirubin,[20],0.50 mg/dL
same,Hgb,[20],9.40 g/dL
same,LDH,[20],0.5 ×ULN
same,Reticulocytes,[20],200 10^9/μL
same,Total bilirubin,[20],1.90 mg/dL
same,Direct bilirubin,[21],0.39 mg/dL
same,Hgb,[21],9.10 g/dL
same,LDH,[21],0.9 ×ULN
same,Reticulocytes,[21],239 10^9/μL
same,Total bilirubin,[21],1.25 mg/dL
same,Direct bilirubin,[22],0.78 mg/dL
same,Hgb,[22],7.70 g/dL
same,LDH,[22],1.5 ×ULN
same,Reticulocytes,[22],238 10^9/μL
same,Total bilirubin,[22],2.18 mg/dL
same,Direct bilirubin,[23],0.53 mg/dL
same,Hgb,[23],7.30 g/dL
same,LDH,[23],1.8 ×ULN
same,Reticulocytes,[23],206 10^9/μL
same,Total bilirubin,[23],2.04 mg/dL
same,Direct bilirubin,[24],0.52 mg/dL
same,Hgb,[24],7.50 g/dL
same,LDH,[24],1.4 ×ULN
same,Reticulocytes,[24],169 10^9/μL
same,Total bilirubin,[24],1.57 mg/dL
same,Direct bilirubin,[25],0.23 mg/dL
same,Hgb,[25],7.70 g/dL
same,LDH,[25],0.9 ×ULN
same,Reticulocytes,[25],200 10^9/μL
same,Total bilirubin,[25],0.56 mg/dL
same,Direct bilirubin,[26],0.18 mg/dL
same,Hgb,[26],10.8 g/dL
same,LDH,[26],0.9 ×ULN
same,Reticulocytes,[26],110 10^9/μL
same,Total bilirubin,[26],0.34 mg/dL
same,Direct bilirubin,[27],0.18 mg/dL
same,Hgb,[27],11.5 g/dL
same,LDH,[27],0.9 ×ULN
same,Reticulocytes,[27],96 10^9/μL
same,Total bilirubin,[27],0.32 mg/dL
same,Direct bilirubin,[28],0.68 mg/dL
same,Hgb,[28],7.80 g/dL
same,LDH,[28],1.3 ×ULN
same,Reticulocytes,[28],258 10^9/μL
same,Total bilirubin,[28],3.24 mg/dL
same,Hgb,[29],10.2 g/dL
same,Reticulocytes,[29],292 10^9/μL
same,Direct bilirubin,[30],0.23 mg/dL
same,Hgb,[30],11.0 g/dL
same,LDH,[30],1.2 ×ULN
same,Reticulocytes,[30],152 10^9/μL
same,Total bilirubin,[30],1.14 mg/dL
same,Direct bilirubin,[31],0.64 mg/dL
same,Hgb,[31],8.40 g/dL
same,LDH,[31],0.9 ×ULN
same,Reticulocytes,[31],188 10^9/μL
same,Total bilirubin,[31],3.76 mg/dL
same,Direct bilirubin,[32],0.39 mg/dL
same,Hgb,[32],9.40 g/dL
same,LDH,[32],1.2 ×ULN
same,Reticulocytes,[32],88.0 10^9/μL
same,Total bilirubin,[32],1.85 mg/dL
same,Direct bilirubin,[33],0.31 mg/dL
same,Hgb,[33],11.5 g/dL
same,LDH,[33],1.1 ×ULN
same,Reticulocytes,[33],69.0 10^9/μL
same,Total bilirubin,[33],1.41 mg/dL
same,raise in hemoglobin,addition of danicopan to eculizumab in patients that continued to be anemic,over 2 g/dL
same,"Direct bilirubin, mean",[34],0.51 mg/dL
same,"LDH, mean",[34],1.06 ×ULN
same,"Reticulocytes, mean",[34],219 10^9/μL
same,"Total bilirubin, mean",[34],2.17 mg/dL
same,"Direct bilirubin, mean",[35],0.37 mg/dL
same,"LDH, mean",[35],1.04 ×ULN
same,"Reticulocytes, mean",[35],135 10^9/μL
same,"Total bilirubin, mean",[35],1.35 mg/dL
same,mean increase in Hgb,"at 24 Weeks of treatment vs baseline, danicopan added to eculizumab",2.4 g/dL
same,mean increase in Hgb,danicopan added to background eculizumab,2.4 gram
same,raise in hemoglobin,"patient without transfusion history (Patient A), baseline 5 g/dL, at 24-weeks",over 3 g/dL
